For 21 compounds, IC50 results are on record in patent US9278950B2, “Bicyclic aromatic carboxamide compounds useful as Pim kinase inhibitors” (Incyte Corporation, priority 2013, dated 2016).

Assay type in all cases: biochemical
For one assay, the target named is T1, Pim2 (Homo sapiens, UniProt Q9P1W9).
T1 construct: purchased Invitrogen PV3649
In words: Pim-2 kinase assay (Pim enzyme assays, Example A). As to conditions: 1 mM ATP; read-out: Pim2 IC50. As for the experimental part: Pim-2 kinase assay—20 μL reactions were run in white 384 well polystyrene plates dotted with 0.8 μL compound/DMSO in the assay buffer (50 mM Tris, pH 7.5, 0.01% Tween-20, 5 mM mgCl2, 0.01% BSA, 5 mM DTT), containing 0.05 μM Fluorescein-labeled CREBtide peptide substrate (Invitrogen PV3508), 1 mM ATP, and 1 nM enzyme (Invitrogen PV3649) for 2 h at 25° C. Reactions were stopped by addition of 10 μL TR-FRET Dilution Buffer (Invitrogen PV3574) with 30 mM EDTA and 1.5 nM LanthaScreen Tb-CREB pSer133 antibody (Invitrogen PV3566). After 30 min. incubation at room temperature, plates were read on a PHERAstar FS plate reader (BMG Labtech).

The target in the next assay is T2, Pim-1 (Homo sapiens, UniProt P11309).
T2 construct: purchased Invitrogen PV3503
T2 sequence (P11309 whole entry): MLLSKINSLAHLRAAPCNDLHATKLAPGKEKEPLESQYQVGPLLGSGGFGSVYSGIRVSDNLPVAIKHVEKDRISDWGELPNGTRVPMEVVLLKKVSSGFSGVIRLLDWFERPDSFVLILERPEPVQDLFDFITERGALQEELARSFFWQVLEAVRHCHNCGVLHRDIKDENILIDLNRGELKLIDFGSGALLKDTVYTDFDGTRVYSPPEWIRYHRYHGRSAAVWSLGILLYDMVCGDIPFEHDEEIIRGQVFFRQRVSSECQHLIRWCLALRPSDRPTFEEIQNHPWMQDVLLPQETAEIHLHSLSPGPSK
The experiment in a line: Pim-1 kinase assay (Pim enzyme assays, Example A). To be noted: 1 mM ATP; read-out: Pim1 IC50. As for the experimental part: (§1) Pim-1 and Pim-3 kinase assays-20 μL reactions were run in white 384 well polystyrene plates dotted with 0.8 μL compound/DMSO in the assay buffer (50 mM Tris, pH 7.5, 0.01% Tween-20, 5 mM mgCl2, 0.01% BSA, 5 mM DTT), containing 0.05 μM Biotin-labeled BAD peptide substrate (AnaSpec 62269), 1 mM ATP, and […] (Pim-1, Invitrogen PV3503) or […] (Pim-3, Millipore 14-738) enzyme for 1 h at 25° C. Reactions were stopped by addition of 10 μL STOP Buffer (150 mM Tris, pH=7.5, 150 mM NaCl, 75 mM EDTA, 0.01% Tween-20, 0.3% BSA,) supplemented with Phospho-Bad (Ser 12) Antibody (Cell Signaling 9291) diluted 666-fold, and Streptavidin donor beads (PerkinElmer 6760002) along with Protein-A acceptor beads (PerkinElmer 6760137) at 15 μg/mL each. Supplementation of the STOP buffer with beads and stopping the reactions were done under reduced light. Prior to the stopping reactions STOP buffer with beads was preincubated for 1 h in the dark at room temperature. After stopping the reactions, plates were incubated for 1 h in the dark at room temperature before reading on a PHERAstar FS plate reader (BMG Labtech) under reduced light.

Another assay addresses T3, Pim-3 (Homo sapiens, UniProt Q86V86).
T3 construct: purchased Millipore 14-738
The experiment in a line: Pim-3 kinase assay (Pim enzyme assays, Example A). As to conditions: 1 mM ATP; read-out: Pim3 IC50. As for the experimental part:
as §1

T1 sequence (Q9P1W9 whole entry): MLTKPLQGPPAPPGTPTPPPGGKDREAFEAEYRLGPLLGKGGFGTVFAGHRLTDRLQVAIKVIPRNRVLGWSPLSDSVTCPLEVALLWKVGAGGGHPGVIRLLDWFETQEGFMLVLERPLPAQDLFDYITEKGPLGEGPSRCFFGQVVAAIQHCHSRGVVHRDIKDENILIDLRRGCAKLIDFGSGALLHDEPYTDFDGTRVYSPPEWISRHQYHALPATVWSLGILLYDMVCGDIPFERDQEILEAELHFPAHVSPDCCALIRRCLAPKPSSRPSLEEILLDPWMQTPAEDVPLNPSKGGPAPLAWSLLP

Regarding `Nc1cc2ccc(CN3CCOCC3)cc2nc1C(=O)Nc1cnccc1N1CCC[C@H](N)C1` [Example 21, 3-Amino-N-{4-[(3S)-3-aminopiperidin-1-yl]pyridin-3-yl}-7-(morpholin-4-ylmethyl)quinoline-2-carboxamide], the IC50 (usually the concentration at which inhibition is half-maximal) at Pim2 is 100 to 1000 nM; on Pim-1 it was ≤ 100 nM; on Pim-3 it was ≤ 100 nM.

`CCc1ccc2cc(N)c(C(=O)Nc3cnccc3C3CCCC(N)C3)nc2c1` (stereo not drawn) [Example 23, 3-Amino-N-[4-(3-aminocyclohexyl)pyridin-3-yl]-7-ethylquinoline-2-carboxamide]: the results for the IC50 at Pim2, on Pim-1 and at Pim-3 were 100 to 1000 nM, ≤ 100 nM and ≤ 100 nM, respectively.

For the compound `CCc1ccc2cc(N)c(C(=O)Nc3cnc4c(c3N3CCC[C@H](N)C3)CCO4)nc2c1` [Example 24, (S)-3-Amino-N-(4-(3-aminopiperidin-1-yl)-2,3-dihydrofuro[2,3-b]pyridin-5-yl)-7-ethylquinoline-2-carboxamide], the IC50 at Pim2 is 100 to 1000 nM; on Pim-1, ≤ 100 nM; on Pim-3 it was ≤ 100 nM.

Consider `CCc1ccc2cc(N)c(C(=O)Nc3cncc(C)c3N3C[C@@H](N)[C@H](O)[C@@H](C)C3)nc2c1` [Example 28, 3-Amino-N-{4-[(3R,4R,5S)-3-amino-4-hydroxy-5-methylpiperidin-1-yl]-5-methylpyridin-3-yl}-7-ethylquinoline-2-carboxamide], for which the IC50 at Pim2, on Pim-1 and on Pim-3 was ≤ 100 nM in each case.

For `CCc1ccc2cc(N)c(C(=O)Nc3cnccc3N3C[C@@H](N)[C@H](O)[C@@H](C)C3)nc2c1` [Example 29, 3-Amino-N-{4-[(3R,4R,5S)-3-amino-4-hydroxy-5-methylpiperidin-1-yl]pyridin-3-yl}-7-ethylquinoline-2-carboxamide], the IC50 on Pim2, on Pim-1 and on Pim-3 was ≤ 100 nM each time.

In the case of `CCc1ccc2cc(N)c(C(=O)Nc3cncc(C)c3N3CCC[C@H](N)C3)nc2c1` [Example 30, 3-Amino-N-{4-[(3S)-3-aminopiperidin-1-yl]-5-methylpyridin-3-yl}-7-ethylquinoline-2-carboxamide], the IC50 on Pim2, at Pim-1 and on Pim-3 was ≤ 100 nM in each case.

As to `CCc1ccc2cc(N)c(C(=O)Nc3cnc(OC)cc3N3CCC[C@H](N)C3)nc2c1` [Example 31, 3-Amino-N-{4-[(3S)-3-aminopiperidin-1-yl]-6-methoxypyridin-3-yl}-7-ethylquinoline-2-carboxamide], the IC50 is > 2000 nM on Pim2, > 40 nM at Pim-1 and ≤ 100 nM at Pim-3.

`CCc1ccc2cc(N)c(C(=O)Nc3cncc(C#N)c3N3CCC[C@H](N)C3)nc2c1` [Example 32, 3-Amino-N-{4-[(3S)-3-aminopiperidin-1-yl]-5-cyanopyridin-3-yl}-7-ethylquinoline-2-carboxamide]: the figures for the IC50 on Pim2, on Pim-1 and at Pim-3 were > 2000 nM, ≤ 100 nM and ≤ 100 nM, respectively.

With `C[C@H]1CN(c2ccncc2NC(=O)c2nc3cc(N4CCOCC4)ccc3cc2N)C[C@@H](N)[C@@H]1O` [Example 33, 3-Amino-N-{4-[(3R,4R,5S)-3-amino-4-hydroxy-5-methylpiperidin-1-yl]pyridin-3-yl}-7-morpholin-4-ylquinoline-2-carboxamide], the IC50 on Pim2 is 100 to 1000 nM; at Pim-1, ≤ 100 nM; on Pim-3, ≤ 100 nM.

Consider `C[C@@H]1C[C@H](N)CN(c2ccncc2NC(=O)c2nc3cc(N4CCOCC4)ccc3cc2N)C1` [Example 34, 3-Amino-N-{4-[(3S,5R)-3-amino-5-methylpiperidin-1-yl]pyridin-3-yl}-7-morpholin-4-ylquinoline-2-carboxamide], for which the IC50 at Pim2, on Pim-1 and at Pim-3 was ≤ 100 nM throughout.

As to `Nc1cc2ccc(N3CCOCC3)cc2nc1C(=O)Nc1cnccc1N1C[C@@H](N)C[C@@H](C(F)(F)F)C1` [Example 35, 3-Amino-N-{4-[(3S,5R)-3-amino-5-(trifluoromethyl)piperidin-1-yl]pyridin-3-yl}-7-morpholin-4-ylquinoline-2-carboxamide], the IC50 on Pim2 is 100 to 1000 nM; at Pim-1 it was ≤ 100 nM; at Pim-3, ≤ 100 nM.

In the case of `C[C@@H]1C[C@H](N)CN(c2ccncc2NC(=O)c2nc3cc(N4CCN(C)CC4)ccc3cc2N)C1` [Example 36, 3-Amino-N-{4-[(3S,5R)-3-amino-5-methylpiperidin-1-yl]pyridin-3-yl}-7-(4-methylpiperazin-1-yl)quinoline-2-carboxamide], the half-maximal inhibitory concentration (IC50) at Pim2, on Pim-1 and on Pim-3 was ≤ 100 nM throughout.

For the compound `CN1CCN(c2ccc3cc(N)c(C(=O)Nc4cnccc4N4C[C@@H](N)C[C@@H](C(F)(F)F)C4)nc3c2)CC1` [Example 37, 3-Amino-N-{4-[(3S,5R)-3-amino-5-(trifluoromethyl)piperidin-1-yl]pyridin-3-yl}-7-(4-methylpiperazin-1-yl)quinoline-2-carboxamide], the IC50 at Pim2 is 100 to 1000 nM; at Pim-1, ≤ 100 nM; on Pim-3, ≤ 100 nM.

Turning to `C[C@H]1CN(c2ccncc2NC(=O)c2nc3cc(N4CCN(C)CC4)ccc3cc2N)C[C@@H](N)[C@@H]1O` [Example 38, 3-Amino-N-{4-[(3R,4R,5S)-3-amino-4-hydroxy-5-methylpiperidin-1-yl]pyridin-3-yl}-7-(4-methylpiperazin-1-yl)quinoline-2-carboxamide], the IC50 at Pim2, at Pim-1 and at Pim-3 was ≤ 100 nM each time.

As for `Nc1cc2ccc(C3CCOCC3)cc2nc1C(=O)Nc1cnccc1N1C[C@@H](N)C[C@@H](C(F)(F)F)C1` [Example 39, 3-Amino-N-{4-[(3S,5R)-3-amino-5-(trifluoromethyl)piperidin-1-yl]pyridin-3-yl}-7-(tetrahydro-2H-pyran-4-yl)quinoline-2-carboxamide], the IC50 on Pim2, on Pim-1 and on Pim-3 was ≤ 100 nM in each case.

Turning to `C[C@@H]1C[C@H](N)CN(c2ccncc2NC(=O)c2nc3cc(C4CCOCC4)ccc3cc2N)C1` [Example 40, 3-Amino-N-{4-[(3S,5R)-3-amino-5-methylpiperidin-1-yl]pyridin-3-yl}-7-(tetrahydro-2H-pyran-4-yl)quinoline-2-carboxamide], the IC50 on Pim2, at Pim-1 and on Pim-3 was ≤ 100 nM each time.

For the compound `C[C@H]1CN(c2ccncc2NC(=O)c2nc3cc(C4CCOCC4)ccc3cc2N)C[C@@H](N)[C@@H]1O` [Example 41, 3-Amino-N-{4-[(3R,4R,5S)-3-amino-4-hydroxy-5-methylpiperidin-1-yl]pyridin-3-yl}-7-(tetrahydro-2H-pyran-4-yl)quinoline-2-carboxamide], the IC50 on Pim2, at Pim-1 and at Pim-3 was ≤ 100 nM each time.

`C[C@H]1CN(c2ccncc2NC(=O)c2nc3cc(C4CCN(C)CC4)ccc3cc2N)C[C@@H](N)[C@@H]1O` [Example 42, 3-Amino-N-{4-[(3R,4R,5S)-3-amino-4-hydroxy-5-methylpiperidin-1-yl]pyridin-3-yl}-7-(1-methylpiperidin-4-yl)quinoline-2-carboxamide]: the IC50 on Pim2, at Pim-1 and at Pim-3 was ≤ 100 nM throughout.

On to `C[C@@H]1C[C@H](N)CN(c2ccncc2NC(=O)c2nc3cc(C4CCN(C)CC4)ccc3cc2N)C1` [Example 43, 3-Amino-N-{4-[(3S,5R)-3-amino-5-methylpiperidin-1-yl]pyridin-3-yl}-7-(1-methylpiperidin-4-yl)quinoline-2-carboxamide], for which the IC50 at Pim2, at Pim-1 and on Pim-3 was ≤ 100 nM throughout.

With `CN1CCC(c2ccc3cc(N)c(C(=O)Nc4cnccc4N4C[C@@H](N)C[C@@H](C(F)(F)F)C4)nc3c2)CC1` [Example 44, 3-Amino-N-{4-[(3S,5R)-3-amino-5-(trifluoromethyl)piperidin-1-yl]pyridin-3-yl}-7-(1-methylpiperidin-4-yl)quinoline-2-carboxamide], the IC50 on Pim2, on Pim-1 and on Pim-3 was ≤ 100 nM throughout.

`C[C@@H]1C[C@H](N)CN(c2ccncc2NC(=O)c2nc3cc(N4CCCCC4=O)ccc3cc2N)C1` [Example 45, 3-Amino-N-{4-[(3S,5R)-3-amino-5-methylpiperidin-1-yl]pyridin-3-yl}-7-(2-oxopiperidin-1-yl)quinoline-2-carboxamide]: the IC50 on Pim2 is 100 to 1000 nM; on Pim-1 it was ≤ 100 nM; on Pim-3, ≤ 100 nM.
